Measured values as given in ChEMBL document CHEMBL3877335, “Bifunctional Inhibitors as a New Tool To Reduce Cancer Cell Invasion by Impairing MMP-9 Homodimerization” (ACS Med Chem Lett, 2017).
Calls of active or inactive are those of the source. No cut-off for these calls is given here.

What was measured:
[1] = biological target: T1, Matrix metalloproteinase-9 (Homo sapiens, UniProt P14780); assay: Inhibition of MMP-9 homodimerization in human U343MG cells assessed as reduction in cell invasion at 25 nM measured after 24 hrs by p-formaldehyde/crystal violet staining based matrigel basement membrane transwell assay
[2] = biological target: T1, Matrix metalloproteinase-9; conditions: U-87MG ATCC, 25 nM
Description: Inhibition of MMP-9 homodimerization in human U87MG cells assessed as reduction in cell invasion at 25 nM measured after 24 hrs by p-formaldehyde/crystal violet staining based matrigel basement membrane transwell assay

[3] = biological target: T1, Matrix metalloproteinase-9; conditions: T98G, 25 nM
Description: Inhibition of MMP-9 homodimerization in human T98G cells assessed as reduction in cell invasion at 25 nM measured after 24 hrs by p-formaldehyde/crystal violet staining based matrigel basement membrane transwell assay

[4] = biological target: T1, Matrix metalloproteinase-9; assay: Inhibition of p-aminophenylmercuric acetate activated recombinant human MMP-9 expressed in CHO cells pretreated for 4 hrs followed by Mca-Lys-Pro-Leu-Gly-Leu-Dap(Dnp)-Ala-Arg-NH2 fluorogenic substrate addition measured every 15 secs for 20 mins by fluorimetric assay; type: cell-based
[5] = biological target: T2, Interstitial collagenase (Homo sapiens, UniProt P03956); assay: Inhibition of p-aminophenylmercuric acetate activated human rheumatoid synovial fibroblast MMP-1 pretreated for 4 hrs followed by Mca-Lys-Pro-Leu-Gly-Leu-Dap(Dnp)-Ala-Arg-NH2 fluorogenic substrate addition measured every 15 secs for 20 mins by fluorimetric assay
T2 sequence (P03956 whole entry): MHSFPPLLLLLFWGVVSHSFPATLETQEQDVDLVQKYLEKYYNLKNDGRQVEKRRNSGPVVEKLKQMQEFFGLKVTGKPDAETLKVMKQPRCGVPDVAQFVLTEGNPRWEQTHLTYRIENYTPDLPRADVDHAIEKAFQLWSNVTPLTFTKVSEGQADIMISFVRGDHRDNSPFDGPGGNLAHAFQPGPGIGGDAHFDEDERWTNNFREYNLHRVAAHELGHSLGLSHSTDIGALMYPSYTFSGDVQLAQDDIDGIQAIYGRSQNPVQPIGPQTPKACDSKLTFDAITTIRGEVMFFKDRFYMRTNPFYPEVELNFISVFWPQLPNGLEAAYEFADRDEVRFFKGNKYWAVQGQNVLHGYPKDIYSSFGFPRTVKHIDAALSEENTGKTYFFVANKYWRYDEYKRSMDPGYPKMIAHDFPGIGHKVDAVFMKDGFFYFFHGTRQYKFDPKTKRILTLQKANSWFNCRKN

[6] = Antiproliferative activity against human U87MG cells at 5 to 25 nM measured after 24 hrs by MTS assay; type: cell-based; conditions: u-87mg atcc, 0.025 µM
[7] = biological target: T1, Matrix metalloproteinase-9; assay: Inhibition of MMP-9 homodimerization in human T98G cells assessed as reduction in cell invasion at 5 to 25 nM measured after 24 hrs by p-formaldehyde/crystal violet staining based matrigel basement membrane transwell assay
[8] = biological target: Matrix metalloproteinase-14 (Homo sapiens, UniProt P50281); assay: Inhibition of recombinant human MMP-14 catalytic domain pretreated for 4 hrs followed by Mca-Lys-Pro-Leu-Gly-Leu-Dap(Dnp)-Ala-Arg-NH2 fluorogenic substrate addition measured every 15 secs for 20 mins by fluorimetric assay
[9] = biological target: T1, Matrix metalloproteinase-9; assay: Inhibition of MMP-9 homodimerization in human U87MG cells assessed as reduction in cell invasion at 5 to 25 nM measured after 24 hrs by p-formaldehyde/crystal violet staining based matrigel basement membrane transwell assay; conditions: U-87MG ATCC
[10] = biological target: 72 kDa type IV collagenase (Homo sapiens, UniProt P08253); assay: Inhibition of p-aminophenylmercuric acetate activated recombinant human MMP-2 expressed in CHO cells pretreated for 4 hrs followed by Mca-Lys-Pro-Leu-Gly-Leu-Dap(Dnp)-Ala-Arg-NH2 fluorogenic substrate addition measured every 15 secs for 20 mins by fluorimetric assay; type: cell-based
[11] = Antiproliferative activity against human T98G cells at 5 to 25 nM measured after 24 hrs by MTS assay; type: cell-based; conditions: 0.025 µM
[12] = Antiproliferative activity against human U343MG cells at 5 to 25 nM measured after 24 hrs by MTS assay; type: cell-based; conditions: 0.025 µM
[13] = organism: Homo sapiens; assay: Selectivity ratio of IC50 for p-aminophenylmercuric acetate activated human rheumatoid synovial fibroblast MMP-1 to IC50 for p-aminophenylmercuric acetate activated recombinant human MMP-9

T1 sequence (P14780 whole entry): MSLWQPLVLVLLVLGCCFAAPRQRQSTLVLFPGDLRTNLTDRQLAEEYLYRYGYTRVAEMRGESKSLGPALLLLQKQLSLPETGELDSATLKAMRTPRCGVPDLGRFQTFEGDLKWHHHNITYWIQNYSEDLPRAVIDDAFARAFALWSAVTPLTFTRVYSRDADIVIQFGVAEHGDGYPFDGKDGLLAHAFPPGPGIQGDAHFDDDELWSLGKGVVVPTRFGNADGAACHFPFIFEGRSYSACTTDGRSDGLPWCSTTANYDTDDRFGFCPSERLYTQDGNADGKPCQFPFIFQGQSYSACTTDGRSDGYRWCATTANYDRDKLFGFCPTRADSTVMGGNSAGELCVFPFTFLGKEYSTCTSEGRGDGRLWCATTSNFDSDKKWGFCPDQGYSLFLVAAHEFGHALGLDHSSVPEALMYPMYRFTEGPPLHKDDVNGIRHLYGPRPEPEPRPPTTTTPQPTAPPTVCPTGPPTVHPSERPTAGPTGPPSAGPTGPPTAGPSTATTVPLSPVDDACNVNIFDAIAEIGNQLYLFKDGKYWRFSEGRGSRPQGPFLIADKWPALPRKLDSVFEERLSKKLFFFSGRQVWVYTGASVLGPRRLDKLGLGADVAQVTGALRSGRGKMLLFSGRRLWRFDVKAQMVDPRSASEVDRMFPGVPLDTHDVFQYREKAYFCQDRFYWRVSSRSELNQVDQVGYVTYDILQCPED
72 kDa type IV collagenase, sequence (P08253 whole entry): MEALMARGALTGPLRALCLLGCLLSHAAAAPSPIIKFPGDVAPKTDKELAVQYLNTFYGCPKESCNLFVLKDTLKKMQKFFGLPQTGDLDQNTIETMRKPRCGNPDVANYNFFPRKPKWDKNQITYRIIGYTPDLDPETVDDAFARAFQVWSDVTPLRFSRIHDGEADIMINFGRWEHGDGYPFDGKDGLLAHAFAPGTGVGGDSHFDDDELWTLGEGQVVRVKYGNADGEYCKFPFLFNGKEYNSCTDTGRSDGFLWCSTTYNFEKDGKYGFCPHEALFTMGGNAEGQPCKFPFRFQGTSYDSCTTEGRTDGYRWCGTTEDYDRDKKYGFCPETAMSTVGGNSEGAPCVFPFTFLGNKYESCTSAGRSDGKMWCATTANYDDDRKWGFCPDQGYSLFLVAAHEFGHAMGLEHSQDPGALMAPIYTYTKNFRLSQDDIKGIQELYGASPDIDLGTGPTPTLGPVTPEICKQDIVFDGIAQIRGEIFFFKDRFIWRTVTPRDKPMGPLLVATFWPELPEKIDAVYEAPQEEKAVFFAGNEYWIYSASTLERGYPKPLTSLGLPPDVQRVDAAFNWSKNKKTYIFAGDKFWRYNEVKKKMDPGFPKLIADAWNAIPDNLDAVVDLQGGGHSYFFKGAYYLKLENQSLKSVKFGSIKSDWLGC

SMILES | inhibition [1] | inhibition [2] | inhibition [3] | IC50 [4] | IC50 [5] | inhibition [7] | IC50 [8] | inhibition [9] | IC50 [10] | Ratio IC50 [13] | Activity [6] | Activity [11] | Activity [12]
COc1ccc(S(=O)(=O)N(Cc2cccnc2)[C@@H](C(=O)NO)C(C)C)cc1 | Active | Active | Active |  |  |  |  |  |  |  |  |  | 
CC(C)ON([C@H](CCNC(=O)CCCNC(=O)c1cccc(C(=O)NCCCC(=O)NCC[C@H](C(=O)NO)N(OC(C)C)S(=O)(=O)c2ccc(-c3ccccc3)cc2)c1)C(=O)NO)S(=O)(=O)c1ccc(-c2ccccc2)cc1 |  |  |  | 38 nM | 5200 nM |  | 116 nM |  | 20 nM |  |  |  | 
CC(C)[C@H](C(=O)O)N(CCNC(=O)c1cccc(C(=O)NCCN([C@@H](C(=O)N(C)C)C(C)C)S(=O)(=O)c2ccc(-c3ccccc3)cc2)c1)S(=O)(=O)c1ccc(-c2ccccc2)cc1 |  |  |  | 34 nM | 2050 nM |  | 850 nM |  | 110 nM |  |  |  | 
CC(C)[C@H](C(=O)NO)N(CCNC(=O)c1cccc(C(=O)NCCN([C@@H](C(=O)N(C)C)C(C)C)S(=O)(=O)c2ccc(-c3ccccc3)cc2)c1)S(=O)(=O)c1ccc(-c2ccccc2)cc1 |  |  |  | 41 nM | 1600 nM |  | 900 nM |  | 107 nM |  |  |  | 
CC(C)[C@H](C(=O)O)N(CCNC(=O)c1ccccc1)S(=O)(=O)c1ccc(-c2ccccc2)cc1 |  |  |  | 510 nM | 16000 nM | Active | 1830 nM | Active | 170 nM |  | Non-Toxic | Non-Toxic | Non-Toxic

More lines, in order of falling IC50 [4], values ahead:

inhibition [1] | inhibition [2] | inhibition [3] | IC50 [4] | IC50 [5] | inhibition [7] | IC50 [8] | inhibition [9] | IC50 [10] | Ratio IC50 [13] | SMILES | Activity [6] | Activity [11] | Activity [12]
Active |  |  | 26 nM | 11800 nM | Active | 2200 nM | Active | 63 nM | 450 | CC(C)[C@H](C(=O)O)N(CCNC(=O)c1cccc(C(=O)NCCN([C@@H](C(=O)O)C(C)C)S(=O)(=O)c2ccc(-c3ccccc3)cc2)c1)S(=O)(=O)c1ccc(-c2ccccc2)cc1 | Non-Toxic | Non-Toxic | Non-Toxic
Active |  |  | 5.5 nM | 280 nM | Active | 250 nM | Active | 10 nM |  | CC(C)[C@H](C(=O)NO)N(CCNC(=O)c1cccc(C(=O)NCCN([C@@H](C(=O)NO)C(C)C)S(=O)(=O)c2ccc(-c3ccccc3)cc2)c1)S(=O)(=O)c1ccc(-c2ccccc2)cc1 | Non-Toxic | Non-Toxic | Non-Toxic
 |  |  | 2.5 nM | 13 nM | Active | 23 nM | Active | 0.16 nM |  | CC(C)[C@H](C(=O)NO)N(CCNC(=O)c1ccccc1)S(=O)(=O)c1ccc(-c2ccccc2)cc1 | Non-Toxic | Non-Toxic | Non-Toxic
